Measured values: patent US20250248960A1, “Methods for Providing Rapid Relief of Motor Fluctuations in a Parkinson's Disease Patient” (priority 2012, published 2025)

Test system: Parkinson's disease patients
Assay: Phase 2 study: plasma levodopa concentrations compared to UPDRS scores (off/on state)
Assay type: in vivo, human
Details: plasma levels vs UPDRS scores, FIG. 8
Description: The twenty four (24) patients treated in this study underwent serial evaluations of L-dopa plasma levels, motor response, and safety at each visit. The patients were administered the study drug in the OFF state with the serial evaluations starting prior to dosing and continuing for up to 180 minutes post-dose. Motor function was measured using a tapping test, the Unified Parkinson's Disease Rating Scale Part III (UPDRS III), and subjective evaluation of “meaningful” ON and OFF. Safety parameters monitored included pulmonary function, clinical laboratory data, EGCs, and vital signs (blood pressure, heart rate, and orthostatic blood pressure). This study was designed to measure the time, magnitude, and durability of pulmonary levodopa's effect on motor function, to evaluate the safety and tolerability of pulmonary levodopa in Parkinson's disease patients.
In FIG. 8, patient's plasma levodopa concentrations are being compared to UPDRS scores. UPDRS is a standard test for Parkinson's disease patients to test their response to drug treatment and their disease progression. […] As little as 200-400 ng/ml of levodopa plasma concentration makes the difference between being in the off state and being in the on state. […]

## N[C@@H](Cc1ccc(O)c(O)c1)C(=O)O [L-Dopa, levodopa]
  levodopa plasma concentration difference between being in the off state and being in the on state: 200 to 400 ng/mL
